For data set [1], the target named is Thymidylate synthase (Homo sapiens, UniProt P04818). In words: Inhibition of human thymidylate synthetase at 37 degree C pH 7.4.
A short description of data set [2]: Ratio of Vmax, rel to Km (FPGS substrate activity) for recombinant human FPGS. Format: ADME.
Data set [3] deals with Thymidylate synthase (Escherichia coli, UniProt C3SWJ7). In words: Inhibition of Escherichia coli thymidylate synthetase at 37 degree C pH 7.4.
Data set [4] addresses T1, Thymidylate synthase (Lactobacillus casei, UniProt P00469).
T1 sequence (P00469 whole entry): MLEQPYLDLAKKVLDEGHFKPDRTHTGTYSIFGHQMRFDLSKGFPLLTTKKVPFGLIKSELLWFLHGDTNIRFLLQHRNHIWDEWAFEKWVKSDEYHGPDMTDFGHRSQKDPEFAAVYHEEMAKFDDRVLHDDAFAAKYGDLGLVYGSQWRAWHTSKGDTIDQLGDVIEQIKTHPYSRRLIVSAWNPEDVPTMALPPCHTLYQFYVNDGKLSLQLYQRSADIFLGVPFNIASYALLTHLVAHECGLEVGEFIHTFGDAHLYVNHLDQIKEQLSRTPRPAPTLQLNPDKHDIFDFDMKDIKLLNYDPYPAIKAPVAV
In words: Inhibition of Lactobacillus casei thymidylate synthetase at 37 degree C pH 7.4. Further details: species or system Lacticaseibacillus casei.

Data set [5] has as its system CCRF-CEM. In words: Growth inhibitory activity against CCRF-CEM human lymphoblastic leukemia cells. The class given is functional, cell-based.
Data set [6] relates to CCRF-CEM. Put plainly: Growth inhibitory activity against MTX resistant subline of CCRF-CEM human lymphoblastic leukemia cells. Format: functional, cell-based.
For data set [7], the system named is CCRF-CEM. Put plainly: Growth inhibitory activity against resistant CCRF-CEM human lymphoblastic leukemia cells with decreased uptake of MTX. The class given is functional, cell-based.
The test system of data set [8] is CCRF-CEM. Put plainly: Growth inhibitory activity against MTX resistant CCRF-CEM human lymphoblastic leukemia cells with decreased polyglutamylation. Format: functional, cell-based.
Data set [9] in a line: Vmax, rel (FPGS substrate activity) for recombinant human FPGS. The class given is ADME.
The target in data set [10] is T2, Dihydrofolate reductase (Escherichia coli, UniProt P0ABQ4).
T2 sequence (P0ABQ4 whole entry): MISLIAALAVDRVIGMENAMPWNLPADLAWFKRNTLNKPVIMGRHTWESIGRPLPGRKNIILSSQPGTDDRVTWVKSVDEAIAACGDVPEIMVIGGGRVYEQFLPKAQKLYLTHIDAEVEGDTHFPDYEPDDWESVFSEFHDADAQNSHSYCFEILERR
Description: Inhibition of Escherichia coli dihydrofolate reductase at 37 degree C pH 7.4

In data set [11] the target is T3, Dihydrofolate reductase (Homo sapiens, UniProt P00374).
T3 sequence (P00374 whole entry): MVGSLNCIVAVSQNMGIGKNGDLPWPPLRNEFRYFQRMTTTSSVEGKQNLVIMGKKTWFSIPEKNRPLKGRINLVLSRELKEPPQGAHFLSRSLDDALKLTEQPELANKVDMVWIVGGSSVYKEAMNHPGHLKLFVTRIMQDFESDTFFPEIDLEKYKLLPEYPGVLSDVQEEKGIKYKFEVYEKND
Description: Inhibition of human dihydrofolate reductase at 37 degree C pH 7.4

For data set [12], the target named is Dihydrofolate reductase (Lactobacillus casei, UniProt P00381).
Description: Inhibition of Lactobacillus casei dihydrofolate reductase at 37 degree C pH 7.4
The subject of another data set is 786-0. Put plainly: Cytotoxicity of compound against 786-0 renal cancer cell line. The class given is functional. The settings on record: Homo sapiens.
The next data set relates to SW-620. In words: Cytotoxicity of compound against SW-620 colon cancer cell line. The class given is functional. The settings on record: Homo sapiens.
Data set [13] has as its system CCRF-CEM. Put plainly: Protection of CCRF-CEM human leukemia cells against the growth inhibitory effect of MTX by 5 uM of thymidine at 5000 nM concentration of compound. Format: functional.
Data set [14] has as its system CCRF-CEM. Put plainly: Protection of CCRF-CEM human leukemia cells against the growth inhibitory effect of MTX by 10 uM of hypoxanthine at 5000 nM concentration of compound. Format: functional.
In data set [15] the test system is CCRF-CEM. In words: Protection of CCRF-CEM human leukemia cells against the growth inhibitory effect of MTX by 10 uM of hypoxanthine and 5 uM of thymidine at 5000 nM concentration of compound. Format: functional.
For another data set, the system named is SR. In words: Cytotoxicity of compound against SR leukemia cell line. The class given is functional. The settings on record: Homo sapiens.
The next data set deals with HL-60. In words: Cytotoxicity of compound aganist HL-60 leukemia cell line. Format: functional. The settings on record: Homo sapiens.
A further data set concerns K562. In words: Cytotoxicity of compound against […] leukemia cell line. The class given is functional. The settings on record: Homo sapiens.

Thymidylate synthase (Escherichia coli, UniProt C3SWJ7), sequence (C3SWJ7 whole entry): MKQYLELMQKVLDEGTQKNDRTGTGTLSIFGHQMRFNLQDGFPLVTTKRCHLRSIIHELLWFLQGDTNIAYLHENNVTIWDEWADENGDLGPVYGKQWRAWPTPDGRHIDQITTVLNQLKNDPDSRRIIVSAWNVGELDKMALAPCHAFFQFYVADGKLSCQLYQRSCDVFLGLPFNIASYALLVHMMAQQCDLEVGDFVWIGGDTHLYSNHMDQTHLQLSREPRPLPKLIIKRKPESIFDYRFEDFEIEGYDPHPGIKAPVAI
Thymidylate synthase (Homo sapiens, UniProt P04818), sequence (P04818 whole entry): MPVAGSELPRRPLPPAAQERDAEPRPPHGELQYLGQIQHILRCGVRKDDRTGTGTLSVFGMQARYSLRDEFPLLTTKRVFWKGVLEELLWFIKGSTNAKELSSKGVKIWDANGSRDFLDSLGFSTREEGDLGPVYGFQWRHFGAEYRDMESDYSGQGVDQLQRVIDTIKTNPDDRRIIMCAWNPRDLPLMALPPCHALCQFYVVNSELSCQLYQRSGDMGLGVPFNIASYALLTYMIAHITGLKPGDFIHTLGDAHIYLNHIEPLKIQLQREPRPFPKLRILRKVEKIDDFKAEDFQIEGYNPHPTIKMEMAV
Dihydrofolate reductase (Lactobacillus casei, UniProt P00381), sequence (P00381 whole entry): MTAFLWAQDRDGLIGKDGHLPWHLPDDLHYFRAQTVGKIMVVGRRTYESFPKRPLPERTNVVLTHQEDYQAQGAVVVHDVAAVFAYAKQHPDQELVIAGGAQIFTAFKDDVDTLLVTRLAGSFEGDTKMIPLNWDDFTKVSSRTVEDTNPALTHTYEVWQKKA

For the compound `Nc1nc2[nH]c(CCCc3ccc(C(=O)N[C@@H](CCC(=O)O)C(=O)O)cc3)cc2c(=O)[nH]1`, the IC50 against Thymidylate synthase [1] is over 17 µM; against Thymidylate synthase [3] it was over 180 µM; on Thymidylate synthase [4] it was over 100 µM; on Dihydrofolate reductase [10] it was 22 µM; against Dihydrofolate reductase [11], over 24 µM; against Dihydrofolate reductase [12] it was over 110 µM. In addition, the Ratio in [2] is 0.63. Further, the EC50 came out at 0.46 µM with CCRF-CEM [5], 0.86 µM with CCRF-CEM [6], 4.35 µM with CCRF-CEM [7] and 0.47 µM in the data set with CCRF-CEM [8]. In addition, the Vmax rel in data set [9] is given as 0.57.
For the compound `Nc1nc(N)c2c(CCCCc3ccc(C(=O)N[C@@H](CCC(=O)O)C(=O)O)cc3)coc2n1`, the GI50 in the data set on 786-0 was over 100 µM; in the data set on SW-620, 0.0783 µM; in the data set with SR, 0.0478 µM; in the data set on HL-60 it was 0.0381 µM; in the data set with K562, 0.214 µM. Also, the values for the Relative growth in the data set on CCRF-CEM [13], in the data set with CCRF-CEM [14] and with CCRF-CEM [15] were 20%, 21% and 74%, respectively. Further, the IC50 against Thymidylate synthase [1] is over 18 µM; on Thymidylate synthase [3], over 100 µM; on Thymidylate synthase [4], over 100 µM; against Dihydrofolate reductase [10] it was 21 µM; on Dihydrofolate reductase [11] it was 21 µM; against Dihydrofolate reductase [12], 10 µM. For the same compound, the Ratio in data set [2] worked out at 0.27. Moreover, the EC50 in the data set with CCRF-CEM [5] is 0.12 µM; in the data set on CCRF-CEM [6], 4.85 µM; in the data set on CCRF-CEM [7], 0.265 µM; in the data set with CCRF-CEM [8] it was 3.15 µM. Besides, the Vmax rel in data set [9] stood at 0.54.
As for `Nc1nc(N)c2c(CCCc3ccc(C(=O)N[C@@H](CCC(=O)O)C(=O)O)cc3)coc2n1`, the EC50 is 0.06 µM in the data set with CCRF-CEM [5], at least 4.6 µM in the data set on CCRF-CEM [6], 1.05 µM with CCRF-CEM [7] and 0.084 µM in the data set with CCRF-CEM [8]. Besides, the IC50 against Dihydrofolate reductase [12] is 10 µM.
For `Nc1nc(N)c2c(CCc3ccc(C(=O)N[C@@H](CCC(=O)O)C(=O)O)cc3)coc2n1`, the Ratio in data set [2] is on record as 0.07. Moreover, in [9], the Vmax rel is 0.65.
In the case of `Nc1nc2[nH]c(CCCCc3ccc(C(=O)N[C@@H](CCC(=O)O)C(=O)O)cc3)cc2c(=O)[nH]1`, the GI50 in the data set on 786-0 turned out to be 0.898 µM; in the data set on SW-620 it was 3.81 µM; in the data set on SR, 0.609 µM; in the data set on HL-60, 6.56 µM; in the data set with K562, 0.398 µM. The results for the Relative growth with CCRF-CEM [13], in the data set with CCRF-CEM [14] and with CCRF-CEM [15] were 18%, 85% and 85%, respectively. The IC50 at Thymidylate synthase [1] is over 17 µM; at Thymidylate synthase [3] it was over 170 µM; against Thymidylate synthase [4] it was over 100 µM; at Dihydrofolate reductase [10], 100 µM; against Dihydrofolate reductase [11], over 20 µM; at Dihydrofolate reductase [12], over 110 µM. Further, the Ratio in [2] stood at 0.086. The EC50 stood at 1.1 µM in the data set on CCRF-CEM [5], 3.05 µM in the data set with CCRF-CEM [6], 8.1 µM in the data set with CCRF-CEM [7] and 18 µM in the data set on CCRF-CEM [8]. In data set [9], the Vmax rel was 0.54.
`Nc1nc(N)c2nc(CNc3ccc(C(=O)N[C@@H](CCC(=O)O)C(=O)O)cc3)cnc2n1` [AMINOPTERIN]: the Ratio in data set [2] is 0.19. Also, the Vmax rel in [9] is 1.
At Thymidylate synthase [1], `Nc1nc2[nH]cc(CCc3ccc(C(=O)N[C@@H](CCC(=O)O)C(=O)O)cc3)c2c(=O)[nH]1` [PEMETREXED] returned a Ki of 0.34 µM.

Source of the values: ChEMBL document CHEMBL1141150, “Synthesis of classical, four-carbon bridged 5-substituted furo[2,3-d]pyrimidine and 6-substituted pyrrolo[2,3-d]pyrimidine analogues as antifolates” (J Med Chem, 2005).
